Experiment [1] can be described thus: Inhibition of DNA synthesis in IL3 dependent FDC-P1 cells expressing wild-type KIT.
Experiment [2] in a line: Inhibition of DNA synthesis in IL3 dependent FDC-P1 cells expressing KIT V558D mutant.
Experiment [3] in a line: Antiproliferative activity against mouse 32Dcl3 cell line expressing FLT3-ITD.
Experiment [4] can be described thus: Antiproliferative activity against mouse 32Dcl3 cell line expressing wild-type FLT3.

What is called IC50 is the concentration that gives 50% inhibition. For the compound `Cc1cccc2[nH]c(C(=O)c3cc4cc(O)ccc4[nH]3)cc12` [(5-Hydroxy-1H-indol-2-yl)-(4-methyl-1H-indol-2-yl)-methanone], the IC50 in experiment [1] and in experiment [2] was 500 nM each time.
For `O=C(c1cc2cc(O)ccc2[nH]1)c1cc2cc(O)ccc2[nH]1` [Bis-(5-hydroxy-1H-indol-2-yl)-methanone], the IC50 came out at 100 nM in experiment [3], 500 nM in experiment [1], 100 nM in experiment [4] and 500 nM in experiment [2].

These data come from BindingDB's records for doi:10.1021/jm058033i (University of Regensburg, 2006).
